Reference: US20220175738A1, “Tip60 Inhibitors and Methods of Use for Cardiovascular Disease” (The Medical College of Wisconsin, Inc., priority 2019, published 2022)

System: wild-type rat neonatal CMs
Experiment: Neonatal CM cell culture model: proliferation and apoptosis (planned)
Type: cell-based
Details: low concentrations 0.1-3 μM, 24 hours; expected
Description: The cells will then be assessed for cell proliferation by direct cell counting and [3H]-thymidine incorporation as well as by immunostaining for Ki67, BrdU and pH3. Apoptosis will also be evaluated, by TUNEL labeling and by staining of caspase-3. All results will be confirmed using a minimum of three independent determinations, and statistical evaluation will be performed using ANOVA or a Student's t-test, as appropriate.

c1cc(SSc2ccns2)sn1 [NU9056]
CM proliferation (cell counting, [3H]-thymidine, Ki67, BrdU, pH3): promote CM proliferation
